Laboratory results: paper PMC8868285, “Pharmacological Inhibition of Epac1 Averts Ferroptosis Cell Death by Preserving Mitochondrial Integrity” (Antioxidants, 2022)

Assays:
[1] = tested on: Epac; set-up: method as in BioLog, Cat.No. C 041; settings: no literature reference printed; ref BioLog, Cat.No. C 041; cited from earlier work
[2] = tested on: HT-22 cells; assay: MTT cell viability assay; type: cell-based, mouse
Description: (§1) Cell viability and metabolic activity of cells was first assessed using a colorimetric 3-(4,5-dimethylthiazol-2-yl)-2,5-diphenyltetrazolium Bromide (MTT) (Sigma–Aldrich Chemie GmbH, Steinheim, Germany, #M5655) reduction assay. Cells in a 96-well plate format (8–10,000 cells/well) were incubated with the MTT solution (0.5 mg/mL) for a maximum of 1 h at 37 °C. Afterward, the MTT-containing solution was entirely removed, and the 96-well plate was incubated at −80 °C for at least 2 h. To allow formazan to uniformly disperse in the medium, dimethyl sulfoxide (DMSO) (Sigma–Aldrich Chemie GmbH, Steinheim, Germany, #D8418, Lot# SHBH9942) was administered to the cells for 1 h at 37 °C with continuous shaking. The absorbance values were determined by Synergy™H1 (Bad Friedrichshall, Germany) Hybrid MultiMode Reader at 570 nm with a 630 nm reference filter. The absorbance values of untreated healthy cells or cells treated with DMSO 1% (used as a solvent for various pharmacological applications) were regarded as 100% of cell viability. […] HT-22 cells were treated with the following conditions: control condition (solvent), drug of interest, erastin, and pre- or co-treatment with erastin and drug of interest. Cells as appropriate were pre-treated for 30 min with the drug of interest before the addition of erastin. xCELLigence ®RTCA MP system (ACEA BIO, Amsterdam, The Netherlands) was used to measure cell impedance in real time. The xCELLigence ®RTCA MP system is a label-free real-time cell-based assay, suitable for continuous monitoring of alteration/modifications of the morphology of cells. Continuous cell monitoring was performed by using an E-plate 96 and the cellular impedance or cell resistance was assessed every 15 min for 24 h.

[3] = tested on: retinal glial cells (RGC); set-up: method as in PMID 31918438; settings: cited from earlier work
[4] = tested on: HT-22 cells; assay: Brightfield images of cell morphology; type: cell-based, mouse
[5] = tested on: traumatic brain injury; set-up: method as in PMID 29740274; settings: cited from earlier work
[6] = tested on: HT-22 cells; assay: Extracellular flux analysis (Seahorse), oxygen consumption rate; type: cell-based, mouse
Description: Cellular Oxygen Consumption Rate (OCR) was measured by using an XFe96 extracellular flux analyzer (Seahorse Bioscience, Billerica, MA, USA) which also entailed the mitochondrial stress test as described previously. HT-22 cells (10,000 cells/well) were seeded onto the XFe96-well cell culture microplate and incubated at 37 °C, 5% CO2. 24 h before the assay, the growth medium was replaced with a fresh medium containing either DMSO 1%, erastin 1 µM, CE3F4 alone, ESI-05 alone or a co-treatment of erastin with either CE3F4 or ESI-05. Cells in 180 μL of assay non-buffered DMEM medium supplemented with 2 mM glutamine, 4.5 g/L glucose and 1 mM pyruvate, pH 7.35 were incubated for 1 h in a CO2 free incubator at 37 °C. Basal respiration was measured before injecting the inhibitors that included; oligomycin (4 μM; port A)—an ATP synthase inhibitor; 2,4-dinitrophenol (DNP) (Sigma–Aldrich Chemie GmbH, Steinheim, Germany, #34334) (50 μM; port B)—a mitochondrial oxidative phosphorylation uncoupler; and rotenone (Sigma–Aldrich Chemie GmbH, Steinheim, Germany, #R8875) together with antimycin A (Sigma–Aldrich Chemie GmbH, Steinheim, Germany, #A8674) 0.1 μM and 1 μM; port C)—complex I and complex III inhibitors. By using the BCA assay, OCR measurements were normalized to the protein amount in every well. Three independent experiments with six wells per condition were performed, and a one-way ANOVA test was used to determine statistical significance among different groups.

[7] = tested on: isolated mitochondria from HT-22 cells; assay: High-resolution respirometry (Oroboros) of isolated mitochondria; set-up: species or system mouse
Description: Mitochondria were isolated from harvested HT-22 cells (4–8 × 10^7 cultivated in T75 flasks) using a semi-automated pump-controlled cell rupture system (PCC) (0.71 mL/min) with syringes (SGE, Trajan© Scientific, Ringwood, Australia) attached to a cell homogenizer (Isobiotech, EMBL, Heidelberg, Germany) (bead size of 10 μm suitable for HT-22 cells) and superimposed on a pump (ProSense B.V, Oosterhout, The Netherlands, #NE1000). Collected samples were centrifuged at 800 rpm for 10 min at 4 °C. The supernatant was further centrifuged at 9000× g for 10 min at 4 °C. The resulting pellet was the crude mitochondria. Finally, the mitochondria were suspended in an isolation buffer (HEPES 20 mM, sucrose 250 mM EDTA 3 mM, pH 7.5) for subsequent experiments. The whole procedure was executed on ice.
The protein concentration of isolated mitochondria was determined using the Pierce™ BCA Protein Assay Kit (Pierce™ BCA Protein Assay Kit, Thermo Scientific, Rockford, IL, USA, #23225). Respiration of the isolated mitochondria from HT-22 cells was analyzed using the high-resolution respirometry oxygraph O2K (Oroboros Systems, Innsbruck, Austria). The isolated mitochondria (200 μg) prepared as previously described, were treated with either CE3F4, ESI-05, ethanol, or DMSO as appropriate for 25 min, followed by mitochondrial respiration measurements. Mitochondrial state 1 was determined by continuous stirring at 750 rpm in 1 mL of MiR05 buffer (MgCl2 3 mM, lactobionic acid 60 mM, EGTA 0.5 mM taurine 20 mM, KH2PO4 10 mM, D-Sucrose 110 mM, HEPES 20 mM, BSA, essential fatty acid-free1 g/L, pH adjusted to 7.4). DatLab software (Oroboros Systems, Innsbruck, Austria) was used to record real-time oxygen flux per tissue mass (pmol O2. s^−1 × mg^−1) at 37 °C and to perform oxygen polarography. States were described as, State 2: a non-phosphorylating respiration state which was assessed by addition of complex-I linked substrates, 5 mM pyruvate (Sigma–Aldrich Chemie GmbH, Steinheim, Germany #P-2256), and 2 mM malate (Sigma–Aldrich Chemie GmbH, Steinheim, Germany, #374318); State 3: the oxidative-phosphorylation capacity (OXPHOS) state, of complex-I linked activity or basal respiration was achieved by adding a saturating concentration of 0.8 mM ADP (Sigma–Aldrich Chemie GmbH, Steinheim, Germany, #A5285), this allowed for calculation of ADP-coupled repiration; State 4: Achieved by subsequent addition of oligomycin 0.1 μM/mL (Sigma–Aldrich Chemie GmbH, Steinheim, Germany, #O4876) following state 3, oligomycin blocks the ATP-synthase, thereby inhibiting proton passage; State 3U: Was assessed by incremental steps of 1 μM addition of FCCP—theprotonophore carbonyl cyanide 4-(trifluoromethoxy) phenylhydrazone (Sigma–Aldrich Chemie GmbH, Steinheim, Germany, #C2920), this allowed the calculation of the reserve capacity of the Electron Transport Chain (ETC); Finally, sodium dithionite (DTT, Sigma–Aldrich Chemie GmbH, Steinheim, Germany, #15,795-3) was added to reduce all residual oxygen that was present in the chamber and to calibrate the oxygen content in the chamber. The O2 slope (pmol × (mL/s)) of isolated mitochondria was the oxygen concentration and also the initial derivate of the oxygen concentration—a derivative of oxygen consumption. Measurements were recorded in intervals of 2 s by using a background correction after calibration of the polarographic oxygen sensors.

[8] = tested on: Epac2; settings: ESI-05, Epac2 inhibitor; cited from earlier work
[9] = tested on: secondary brain injury induced by intracerebral hemorrhage; set-up: method as in PMID 30607901; settings: cited from earlier work
[10] = tested on: HT-22 cells; assay: Soluble ROS, CM-DCF FACS; type: cell-based, mouse
Description: Soluble ROS was evaluated by CM-DCF fluorescent dye (Invitrogen, Oregon City, OR, USA). CM-DCF passively diffuses into cells, and reacts with glutathione and other thiols following cleavage by intracellular esterases, which in turn exposes the thiol-reactive chloromethyl group. The oxidation that follows results in a fluorescent adduct that is ensnared within the cell. The higher the fluorescence, the more cellular ROS is produced in the cells.

[11] = tested on: HT-22 cells; assay: Mitochondrial morphology (MitoTracker Deep Red, categories I-III); type: cell-based, mouse; settings: erastin 1 μM alone
Description: Mitochondrial morphology was assessed using imaging of HT-22 cells stained with MitoTracker™Deep Red FM (Invitrogen, Oregon City, OR, USA, #M22426). Cells were treated with either erastin 1 µM, CE3F4 100 µM, or co-treated with erastin 1 µM and CE3F4 100 μM for 18 h. After the treatment, cells were incubated with 200 nM MitoTracker™Deep Red FM for 30 min at 37 °C. Untreated cells were included as controls. 4% paraformaldehyde (PFA) was used for fixation and detection of the MitoTracker fluorescence was achieved by 620 nm (excitation) and 700 ± 75 nm (detection). 500 cells per condition were counted and grouped into three different categories, based on their mitochondrial morphology/shape. The analysis and categorization of mitochondria was done by an investigator without previous knowledge of the various experimental conditions. Category I included healthy cells with mitochondria that form an elongated tubular network that is distributed equally throughout the cytosol. It could also include short mitochondria, but distributed in the cytosol. On the other hand, Category II included cells which contained large, and fragmented/granulated mitochondria around the nucleus. […] Category III represented damaged and dying cells with observed small rounded mitochondria of varying sizes and in proximity to the nucleus.. At least three independent experiments were performed.

[12] = tested on: HT-22 cells; assay: Mitochondrial superoxide, MitoSOX FACS
Description: (§2) Flow cytometry analysis using the CytoFLEXS benchtop flow cytometer (Beckman Coulter Life Sciences, Indianapolis, IN, USA) was used to evaluate intracellular parameters that are associated with not only oxidative stress but also mitochondrial dysfunction, and cell death. HT-22 cells (40,000 cells/well) seeded in 24-well plates were treated with various conditions. Treatment groups included: control condition (DMSO 1%), erastin 1 µM or 1.5 µM, CE3F4 100 µM, and co-treatment of erastin and CE3F4. Three separate wells were analyzed for each condition and the same number of counts (10,000/well) were measured by flow cytometry. At least three independent experiments were performed, and the Kaluza Analysis 1.5 software was employed for quantification of data.
MitoSOX dye (Invitrogen, Oregon City, OR, USA, #M36008, Lot#1924466) was used to evaluate mitochondrial ROS. The MitoSOX dye is able to permeate live cells and also selectively target mitochondria where it is swiftly oxidized by superoxides but not by other reactive oxygen species. […] Incubation of HT-22 cells with MitoSOX™ 1.25 μM dye was done for 30 min at 37 °C. Fluorescence excitation and detection were done at 488 nm and 690/50 nm respectively.

[13] = tested on: HT-22 cells; assay: Lipid peroxidation, BODIPY FACS; settings: erastin 1 μM alone, 4 h
Description: as §2
The staining dye BODIPY 2 μM (Invitrogen, Karlsruhe, Germany, # D3861, Lot # 1890330) was used to estimate lipid peroxidation. Erastin treatment was done for 4 h. HT-22 cells were then stained for 30 min at RT, followed by a one-time wash with PBS and finally analyzed. Fluorescence excitation and detection were done at 488 nm and 530 nm respectively.

[14] = tested on: HT-22 cells; assay: Mitochondrial membrane potential, TMRE FACS
Description: as §2
Staining with TMRE™ dye (tetramethylrhodamine-ethyl ester; Invitrogen, Oregon City, OR, USA, #T669) was used to determine loss of mitochondrial membrane potential (MMP) (ΔΨm). […] Collected cells were incubated for 20 min with TMRE 0.2 μM at 37 °C. Fluorescence excitation and detection were done at 488 nm 690/50 nm respectively.

[15] = tested on: HT-22 cells; assay: Cell death assessment, FACS analysis of PI staining; settings: erastin 1 μM alone
Description: as §2
The amount of cell death after stimulation with erastin for 16–17 h was assessed by incubating trypsonized HT-22 cell suspension with propidium iodide (PI) (Invitrogen, Oregon City, OR, USA, #V13242, Lot #2008168) in a binding buffer. Incubation with the dye was for 30 min at RT. Fluorescence was detected at 494/518 and 535/617 for FITC and PI respectively.

[16] = tested on: HT-22 cells; assay: xCELLigence real-time cell impedance measurement; type: cell-based, mouse; settings: erastin alone, dose response
Description: as §1, with “Cells as appropriate were pre-treated for 30 min with the drug of interest before the addition of erastin. xCELLigence ®RTCA MP system (ACEA BIO, Amsterdam, The Netherlands) was used to measure cell impedance in real time. The xCELLigence ®RTCA MP system is a label-free real-time cell-based assay, suitable for continuous monitoring of alteration/modifications of the morphology of cells.” left out

SMILES: CO[C@@H]1[C@@H]2OP(=O)(O)OC[C@H]2O[C@H]1n1c(Sc2ccc(Cl)cc2)nc2c(N)ncnc21 [8-PCPT-2-O-Me-cAMP]
- AC50 [1]: 1800 nM
- neuroprotection against erastin-induced ferroptosis (MTT) ([2]; 8-pCPT 10–100 μM): did not mediate neuroprotection

SMILES: CO[C@@H]1[C@@H]2OP(=O)(OCOC(C)=O)OC[C@H]2O[C@H]1n1c(Sc2ccc(Cl)cc2)nc2c(N)ncnc21 (stereo partly shown) [8-pCPT-2-O-Me-cAMP-AM]
- effect on RGC [3]: neurotoxic effects

SMILES: Cc1ccc(S(=O)(=O)c2c(C)cc(C)cc2C)cc1 [ESI-05]
- neuroprotection against erastin-induced ferroptosis (bright-field microscopy images) ([4]; ESI-05 30 μM + erastin 1 μM): did not mediate neuroprotection
- neural cell apoptosis after traumatic brain injury [5]: decreased neural cell apoptosis
- neurological deficits after traumatic brain injury [5]: improved other neurological deficits
- mitochondrial respiration (OCR) ([6]; 30 μM ESI-05 + erastin 1 μM vs erastin alone): did not induce any significant difference
- respiration rate after inhibition of ETC complex V (state 4) ([7]; 10 μM ESI-05): significantly increased
- mitochondrial respiration ([7]; ESI-05 30 μM): does not affect mitochondria respiration
- IC50 [8]: 400 nM
- neuroprotection against erastin-induced ferroptosis (MTT) ([2]; 100 μM ESI-05 with lower concentrations of erastin): did not mediate neuroprotection
- neuroprotection against erastin-induced ferroptosis (MTT) ([2]; ESI-05 3–30 μM): did not mediate neuroprotection
- secondary brain injury induced by intracerebral hemorrhage [9]: suppressed secondary brain injury

SMILES: CC(C)(C)c1cc(C(=O)/C(C#N)=N/Nc2cccc(Cl)c2)no1 [ESI-09]
- effect on RGC [3]: neuroprotective
- neuroprotection against erastin-induced ferroptosis (MTT) ([2]; ESI-09, 30 μM): dose-dependent neuroprotection

SMILES: CCOc1ccccc1-n1c(C(C)N2CCN(C(=O)COc3ccc(Cl)cc3)CC2)nc2ccccc2c1=O (stereo not shown) [erastin]
- ROS level (CM-DCF) ([10]; erastin 1 μM alone): significantly increased
- ROS level (CM-DCF) ([10]; erastin 1.5 μM alone): significantly increased
- cell morphology ([4]; erastin 1 μM alone): marked alteration in cell morphology
- mitochondrial morphology [11]: induced pronounced mitochondrial fragmentation
- mitochondrial respiration (OCR) ([6]; erastin 1 μM vs untreated or solvent-treated controls): significant decrease in mitochondrial respiration
- mitochondrial superoxide levels ([12]; erastin 1 μM alone): significant increase and shift towards high ROS levels
- mitochondrial superoxide levels ([12]; erastin 1.5 μM alone): significant increase and shift towards high ROS levels
- lipid peroxidation [13]: increased
- mitochondrial membrane potential (ΔΨm) ([14]; erastin 1 μM alone): significant loss of ΔΨm
- mitochondrial membrane potential (ΔΨm) ([14]; erastin 1.5 μM alone): significant loss of ΔΨm
- cell death (PI staining) [15]: augmented cell death
- cell death (MTT cell viability) ([2]; erastin alone, dose response): dose-dependent cell death
- cell death (real-time cell impedance) [16]: dose-dependent cell death
